Experimental data from US9969742B2, “Imidazotriazinone compounds” (Ironwood Pharmaceuticals, Inc., priority 2012, dated 2018).
Like-named read-outs stand apart in the source and are kept apart here.

What was measured:
Format in all cases: biochemical
PDE9A2 = biological target: T1, PDE9A2 (Homo sapiens, UniProt O76083); assay: Phosphodiesterase enzyme screening assay, PDE9A2
T1 construct: purchased Reaction Biology Corporation, Malvern, Pa
In short: (§1)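 Read-out was electrophoretic mobility-shift separation on chip of fluorescent cyclic nucleotide from 5′-AMP/5′-GMP, with inhibition or enhancement judged against control wells (quadruplicate means). Reactions lasted 1 h at RT in HEPES pH 7.5 buffer with MgCl2, DTT and Brij plus 4.0 μM cGMP substrate, then were halted with EDTA stop buffer.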

PDE1A = biological target: T2, PDE1A (Homo sapiens, UniProt P54750); assay: Phosphodiesterase enzyme screening assay, PDE1A
T2 construct: purchased Reaction Biology Corporation, Malvern, Pa
In short: as §1

PDE1B = biological target: T3, PDE1B (Homo sapiens, UniProt Q01064); assay: Phosphodiesterase enzyme screening assay, PDE1B
T3 construct: purchased Reaction Biology Corporation, Malvern, Pa
In short: as §1

[1] = ratio of IC50 values, PDE1A versus PDE9A2, value greater than 1 indicates greater selectivity for PDE9A2
[2] = ratio of IC50 values, PDE1B versus PDE9A2, value greater than 1 indicates greater selectivity for PDE9A2
[3] = Table 1, 10 concentrations, 4.0 μM cGMP substrate, 1 hour at R.T., read-out: Band (PDE9A2 IC50)
[4] = Table 1, ratio of IC50 values, value greater than 1 indicates greater selectivity for PDE9A2
[5] = 4.0 μM cGMP substrate, 1 hour at R.T., read-out: Band (PDE9A2 IC50)
[6] = IC50 band, 4.0 μM cGMP substrate, 1 hour at R.T.
[7] = ratio of IC50 values PDE1A vs PDE9A2, value greater than 1 indicates greater selectivity for PDE9A2
[8] = ratio of IC50 values PDE1B vs PDE9A2, value greater than 1 indicates greater selectivity for PDE9A2

T1 sequence (O76083 1-533 isoform O76083-2): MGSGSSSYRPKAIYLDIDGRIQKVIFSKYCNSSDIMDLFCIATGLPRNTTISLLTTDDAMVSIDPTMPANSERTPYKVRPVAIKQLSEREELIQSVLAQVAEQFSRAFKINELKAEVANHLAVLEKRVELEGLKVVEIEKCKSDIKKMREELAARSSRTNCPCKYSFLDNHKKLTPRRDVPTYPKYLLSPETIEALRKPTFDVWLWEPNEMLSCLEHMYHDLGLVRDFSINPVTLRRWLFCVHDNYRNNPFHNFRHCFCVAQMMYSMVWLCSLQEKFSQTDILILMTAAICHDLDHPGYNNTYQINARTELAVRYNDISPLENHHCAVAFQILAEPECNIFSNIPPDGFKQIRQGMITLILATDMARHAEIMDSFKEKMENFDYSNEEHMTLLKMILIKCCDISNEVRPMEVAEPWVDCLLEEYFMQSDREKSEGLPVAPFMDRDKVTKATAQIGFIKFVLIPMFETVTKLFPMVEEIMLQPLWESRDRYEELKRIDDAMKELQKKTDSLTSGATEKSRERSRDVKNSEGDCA
T3 sequence (Q01064 whole entry): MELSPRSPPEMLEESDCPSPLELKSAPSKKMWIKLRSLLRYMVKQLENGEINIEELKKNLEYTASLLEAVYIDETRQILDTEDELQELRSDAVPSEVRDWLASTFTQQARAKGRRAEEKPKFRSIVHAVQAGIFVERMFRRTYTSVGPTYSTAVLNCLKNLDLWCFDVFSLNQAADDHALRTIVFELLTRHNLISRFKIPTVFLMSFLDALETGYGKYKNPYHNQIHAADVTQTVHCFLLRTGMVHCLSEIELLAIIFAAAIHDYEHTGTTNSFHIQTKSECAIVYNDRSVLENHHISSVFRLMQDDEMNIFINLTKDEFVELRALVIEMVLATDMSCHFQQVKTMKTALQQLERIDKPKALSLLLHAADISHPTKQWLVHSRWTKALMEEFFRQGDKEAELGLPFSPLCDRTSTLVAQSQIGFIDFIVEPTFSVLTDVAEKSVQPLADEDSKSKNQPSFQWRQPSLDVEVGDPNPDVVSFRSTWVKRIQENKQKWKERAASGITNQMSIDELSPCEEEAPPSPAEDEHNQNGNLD
T2 sequence (P54750 whole entry): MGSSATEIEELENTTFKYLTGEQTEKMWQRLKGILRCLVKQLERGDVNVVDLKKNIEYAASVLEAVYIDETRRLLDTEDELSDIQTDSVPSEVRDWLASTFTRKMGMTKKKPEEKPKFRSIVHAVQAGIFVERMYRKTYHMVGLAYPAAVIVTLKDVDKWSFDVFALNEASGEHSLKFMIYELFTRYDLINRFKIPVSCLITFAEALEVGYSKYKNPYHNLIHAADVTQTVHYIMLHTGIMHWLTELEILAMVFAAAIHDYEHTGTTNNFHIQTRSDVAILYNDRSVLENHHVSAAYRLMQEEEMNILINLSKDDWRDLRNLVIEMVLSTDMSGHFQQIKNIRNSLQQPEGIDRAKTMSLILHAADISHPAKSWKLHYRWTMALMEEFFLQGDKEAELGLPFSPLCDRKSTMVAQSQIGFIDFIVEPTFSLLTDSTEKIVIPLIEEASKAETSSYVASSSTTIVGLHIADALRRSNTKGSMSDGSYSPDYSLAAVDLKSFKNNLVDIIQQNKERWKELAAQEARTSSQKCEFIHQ

SMILES: Cc1ccncc1-c1ncc2c(=O)[nH]c(C3CN(Cc4cn5ccccc5n4)CC3C)nn12 (single isomer, unassigned; (+)) [(+)-2-((3,4-trans)-1-(imidazo[1,2-a]pyridin-2-ylmethyl)-4-methylpyrrolidin-3-yl)-7-(4-methylpyridin-3-yl)imidazo[5,1-f][1,2,4]triazin-4(3H)-one]
- IC50 (PDE9A2; read-out: Band (PDE9A2 IC50)): < 1000 nM
- PDE1A selectivity (versus PDE9A2) (PDE1A; [1]): 128
- PDE1B selectivity (versus PDE9A2) (PDE1B; [2]): 230

SMILES: CC1CN(Cc2ccncn2)CC1c1nn2c(C3CCOCC3)ncc2c(=O)[nH]1 (single isomer, unassigned; (+)) [(+)-2-((3,4-trans)-4-methyl-1-(pyrimidin-4-ylmethyl)pyrrolidin-3-yl)-7-(tetrahydro-2H-pyran-4-yl)imidazo[5,1-f][1,2,4]triazin-4(3H)-one]
- IC50 (PDE9A2; [3]): < 1000 nM
- PDE1A selectivity (versus PDE9A2) (PDE1A; [4]): 136
- PDE1B selectivity (versus PDE9A2) (PDE1B; [4]): 174

SMILES: CC1CN(Cc2cccs2)CC1c1nn2c(C3CCOCC3)ncc2c(=O)[nH]1 (single isomer, unassigned; (+)) [(+)-2-((3,4-trans)-4-methyl-1-(thiophen-2-ylmethyl)pyrrolidin-3-yl)-7-(tetrahydro-2H-pyran-4-yl)imidazo[5,1-f][1,2,4]triazin-4(3H)-one]
- IC50 (PDE9A2; [5]): < 1000 nM
- PDE1A selectivity (versus PDE9A2) (PDE1A; ratio of IC50 values PDE1A / PDE9A2, value greater than 1 = greater selectivity for PDE9A2): 91
- PDE1B selectivity (versus PDE9A2) (PDE1B; ratio of IC50 values PDE1B / PDE9A2, value greater than 1 = greater selectivity for PDE9A2): 140

SMILES: Cc1ccc(F)cc1-c1ncc2c(=O)[nH]c(C3CN(Cc4ccccn4)CC3C)nn12 (single isomer, unassigned; (+)) [(+)-7-(5-fluoro-2-methylphenyl)-2-((3,4-trans)-4-methyl-1-(pyridin-2-ylmethyl)pyrrolidin-3-yl)imidazo[5,1-f][1,2,4]triazin-4(3H)-one]
- IC50 (PDE9A2; [6]): < 1000 nM
- PDE1A selectivity (versus PDE9A2) (PDE1A; [7]): 560
- PDE1B selectivity (versus PDE9A2) (PDE1B; [8]): 277

SMILES: CC1CN(Cc2ccc(F)cc2)CC1c1nn2c(C3CCCC3)ncc2c(=O)[nH]1 (single isomer, unassigned; (+)) [(+)-7-cyclopentyl-2-((3,4-trans)-1-(4-fluorobenzyl)-4-methylpyrrolidin-3-yl)imidazo[5,1-f][1,2,4]triazin-4(3H)-one]
- IC50 (PDE9A2; read-out: Band (PDE9A2 IC50)): < 1000 nM
- PDE1A selectivity (versus PDE9A2) (PDE1A; [1]): 41
- PDE1B selectivity (versus PDE9A2) (PDE1B; [2]): 104

SMILES: Cc1cnccc1-c1ncc2c(=O)[nH]c(C3CN(Cc4cn5ccccc5n4)CC3C)nn12 (single isomer, unassigned; (+)) [(+)-2-((3,4-trans)-1-(imidazo[1,2-a]pyridin-2-ylmethyl)-4-methylpyrrolidin-3-yl)-7-(3-methylpyridin-4-yl)imidazo[5,1-f][1,2,4]triazin-4(3H)-one]
- IC50 (PDE9A2; [5]): < 1000 nM
- PDE1A selectivity (versus PDE9A2) (PDE1A; ratio of IC50 values PDE1A / PDE9A2, value greater than 1 indicates greater selectivity for PDE9A2): 155
- PDE1B selectivity (versus PDE9A2) (PDE1B; ratio of IC50 values PDE1B / PDE9A2, value greater than 1 indicates greater selectivity for PDE9A2): 149

SMILES: CC1CN(Cc2cc(Cl)ccc2Cl)CC1c1nn2c(C3CCOCC3)ncc2c(=O)[nH]1 (single isomer, unassigned; (+)) [(+)-2-((3,4-trans)-1-(2,5-dichlorobenzyl)-4-methylpyrrolidin-3-yl)-7-(tetrahydro-2H-pyran-4-yl)imidazo[5,1-f][1,2,4]triazin-4(3H)-one]
- IC50 (PDE9A2; [3]): < 1000 nM
- PDE1A selectivity (versus PDE9A2) (PDE1A; [4]): 274
- PDE1B selectivity (versus PDE9A2) (PDE1B; [4]): 90

SMILES: Cc1ccc(F)cc1-c1ncc2c(=O)[nH]c(C3CN(Cc4cnccn4)CC3C)nn12 (single isomer, unassigned; (+)) [(+)-7-(5-fluoro-2-methylphenyl)-2-((3,4-trans)-4-methyl-1-(pyrazin-2-ylmethyl)pyrrolidin-3-yl)imidazo[5,1-f][1,2,4]triazin-4(3H)-one]
- IC50 (PDE9A2; [6]): < 1000 nM
- PDE1A selectivity (versus PDE9A2) (PDE1A; [7]): 85
- PDE1B selectivity (versus PDE9A2) (PDE1B; [8]): 74

SMILES: CC1CN(Cc2ccccn2)CC1c1nn2c(C3CCOCC3)ncc2c(=O)[nH]1 (single isomer, unassigned; (+)) [(+)-2-((3,4-trans)-4-methyl-1-(pyridin-2-ylmethyl)pyrrolidin-3-yl)-7-(tetrahydro-2H-pyran-4-yl)imidazo[5,1-f][1,2,4]triazin-4(3H)-one]
- IC50 (PDE9A2; [3]): < 1000 nM
- PDE1A selectivity (versus PDE9A2) (PDE1A; [4]): 373
- PDE1B selectivity (versus PDE9A2) (PDE1B; [4]): 470
